Entries after “also recorded” stand apart in the source; their conditions may differ.
What was measured:
LC20 phosphorylation = tested on: LC20 phosphorylation; parameters: species or system rat
ROK2 = ROK2 (Rattus norvegicus, UniProt Q62868); experiment: 33P-ATP filter-binding kinase assay
DYRK2 = target: T1, DYRK2 (Homo sapiens, UniProt Q92630); experiment: 33P-ATP filter-binding kinase assay
T1 sequence (Q92630 1-601): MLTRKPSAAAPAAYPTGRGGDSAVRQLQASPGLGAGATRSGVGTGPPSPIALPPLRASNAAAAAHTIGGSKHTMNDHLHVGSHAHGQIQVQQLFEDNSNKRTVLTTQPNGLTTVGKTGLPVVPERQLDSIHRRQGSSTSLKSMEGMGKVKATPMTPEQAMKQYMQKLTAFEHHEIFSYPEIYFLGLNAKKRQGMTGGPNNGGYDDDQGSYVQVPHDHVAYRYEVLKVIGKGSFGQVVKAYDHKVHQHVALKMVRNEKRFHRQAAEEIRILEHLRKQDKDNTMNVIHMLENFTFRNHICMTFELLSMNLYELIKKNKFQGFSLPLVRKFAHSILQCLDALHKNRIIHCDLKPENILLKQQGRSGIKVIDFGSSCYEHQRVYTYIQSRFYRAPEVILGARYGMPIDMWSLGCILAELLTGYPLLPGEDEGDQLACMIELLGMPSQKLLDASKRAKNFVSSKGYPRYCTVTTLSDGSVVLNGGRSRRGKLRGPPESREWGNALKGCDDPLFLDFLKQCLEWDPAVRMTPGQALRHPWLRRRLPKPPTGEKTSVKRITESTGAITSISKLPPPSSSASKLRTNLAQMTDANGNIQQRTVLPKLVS

[1] = tested on: human cerebral arterioles; experiment: Pressure myography of isolated human cerebral arterioles, myogenic tone; conditions: HS-38 10 μM, ex vivo
From the text: A human cerebral artery (CA) was harvested during a tumour removal. Cerebral tissue was obtained from a person with metastatic adenocarcinoma from lung. Surface vessels of the anterior cerebral artery off the midline over the left anterior frontal lobe were dissected for analysis. […] Pressure-induced changes in arteriolar diameter (A) as well as diameter-pressure relationships (B) and arterial constriction (C) are shown. Data are from n=1 vessel. The passive diameter at 120 mmHg was ˜290 μm. Vessels of similar diameter were isolated, proteins were extracted with SDS-PAGE buffer and immunoblotted (D) for ZIPK and α-actin as a loading control.
A human cerebral artery (CA) was harvested during a tumor removal. Cerebral tissue was obtained from a person with metastatic adenocarcinoma from lung. Surface vessels of the anterior cerebral artery off the midline over the left anterior frontal lobe were dissected for analysis. […]
Pressure-induced changes in arteriole diameter (A) as well as diameter-pressure relationships (B) and arterial constriction (C) are shown. […] Bands were quantified with a LAS4000 gel analyzer.
Tissues were obtained from patients undergoing resections for treatment for epilepsy or tumors. Surface vessels of ˜200 μm diameter were analyzed by pressure myography and western immunoblotting.

rabbit ileum = experiment: Carbachol-induced Ca2+-sensitized force in α-toxin permeabilized rabbit ileum; conditions: HS38 50 μM, at 20 min, pCa 6.5
Description: A. Typical force trace and graphical representation showing the effect of HS38 (50 μM) on carbachol-induced, Ca^2+ sensitized force in α-toxin permeabilized rabbit ileum. HS38 induced an approximate 30% decrease in the plateaued force at 20 min. (mean±S.E., n=7). B, Western blot analysis of RLC20 and MYPT1 Thr696 phosphorylation following treatment with HS38 (50 μM). […] C. Typical force trace showing the effect, of HS38 on Ca^2+-independent force production in rabbit ileum smooth muscle. […] E. Both the lag time to the onset of force (p <0.05, n=3) and the rate of force development (t1/2) (p <0.02, n=3) were increased following the addition of MC-LR in the presence of HS38 (mean±S.E., n=3).
Tissue Preparation and Force Measurements. […] Intact strips of mouse abdominal aorta were challenged with phenylephrine following pretreatment with HS38 or diluent, DMSO or HS38 and DMSO were added after maximal phenylephrine-induced force was achieved and force output measured. […] For Ca^2+ activating solutions, EGTA (10 mM) and a calculated amount of Ca-methanesulfonate was added to give the desired free Ca^2+ concentration ((Horiuti (1988) J. Physiol.-London 398, 131-148). […]

[2] = read-out: % Activity (10 μM HS38)

Chain of ROK2 (Q62868 2-543): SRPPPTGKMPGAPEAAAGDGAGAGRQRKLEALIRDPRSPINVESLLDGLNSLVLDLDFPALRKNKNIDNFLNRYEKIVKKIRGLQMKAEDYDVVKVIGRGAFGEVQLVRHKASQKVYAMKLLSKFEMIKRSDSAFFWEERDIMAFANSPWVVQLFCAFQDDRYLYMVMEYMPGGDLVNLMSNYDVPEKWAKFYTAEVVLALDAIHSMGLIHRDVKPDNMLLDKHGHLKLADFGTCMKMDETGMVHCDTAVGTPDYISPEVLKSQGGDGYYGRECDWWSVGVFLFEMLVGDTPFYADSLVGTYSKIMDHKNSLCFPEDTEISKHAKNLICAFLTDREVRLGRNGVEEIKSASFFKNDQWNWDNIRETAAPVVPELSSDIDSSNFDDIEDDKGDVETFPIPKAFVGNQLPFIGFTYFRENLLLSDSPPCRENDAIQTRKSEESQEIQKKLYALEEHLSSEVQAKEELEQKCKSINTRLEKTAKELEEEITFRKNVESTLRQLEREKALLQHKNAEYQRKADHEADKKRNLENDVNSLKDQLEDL

## CC(Sc1nc2c(cnn2-c2cccc(Cl)c2)c(=O)[nH]1)C(N)=O (stereo not shown) [HS38]
LC20 phosphorylation
  LC20 mono- and diphosphorylation: time-dependent attenuations
ROK2
  activity against ROK2: completely inactive
ROK2; [2]
  activity at 10 µM: 91%
DYRK2; mean ± S.D., n = 2
  IC50: 1800 ± 600 nM
DYRK2; [2]
  activity at 10 µM: 21%
[1]
  myogenic tone development: appeared to attenuate; also recorded: suppressed
Rabbit ileum
  decrease in plateaued carbachol-induced Ca2+-sensitized force: ~30%

— patent publication US11999737B2, “Kinase inhibitors and related methods of use” (Duke University, priority 2014, dated 2024)
